Measured values reported in patent publication US11957766B2, “HNQO1-activatable fluorescent probe for imaging cancer cells in-vitro and in-vivo” (Texas Tech University System, priority 2019, dated 2024).

Key:
[1] = NIR-ASM tolerability and toxicity in vivo; parameters: species or system CD1 mice; conditions: 5 mg/kg five times a week for five weeks
Protocol: Assessment of NIR-ASM biocompatibility. Inspired by the excellent photophysical properties of NIR-ASM in monitoring the NQO1 activity in vitro, the inventors determined the biocompatibility of NIR-ASM both in vitro and in vivo before using for endogenous applications. […] Further, to evaluate NIR-ASM tolerability and toxicity in vivo, CD1 mice were grouped for the administration of vehicle (PEG:H2O:EtOH) alone or 5 mg/kg of NIR-ASM five times a week for five weeks. The average mouse weights were monitored as a surrogate marker to the toxicity.
Hematoxylin and eosin (H&E) staining. The hematoxylin and eosin staining were performed as described previously. Briefly, freshly dissected tissues were snap freeze and store at −20° C. for overnight. Frozen tissues were cut into […] slices, the sections were stained in Mayer's Hematoxylin and Eosin solution. Finally, the sections were dehydrated and mounted with Permount in a fume hood. The results were analyzed under a phase-contrast Olympus microscope (Olympus America Inc).

[2] = system: human NQO1 transfected MDA-MB-231 cells; assay: NIR-ASM in NQO1 gene transfected MDA-MB-231 cells; type: cell-based; conditions: microscopy and flow cytometry
Protocol: (§1) Chemical and genetic approaches confirm the specificity of NIR-ASM for NQO1 in live tumor cells. A fluorescence probe with high sensitivity, simple operation, and excellent specificity will be an asset for the detection of NQO1 in situ. To assess the substrate selectivity of NIR-ASM for NQO1, both A549 and H460 cells were pretreated with 100 nM of NQO1 inhibitor ES936 for 6 h, before incubating with 10 μM NIR-ASM. […] The effect of ES936 on endogenous NQO1 activity and subsequent reactivity with NIR-ASM was also determined by flow cytometry. […] The presence of NQO1 protein in the transfected MDA-MB-231 cells and its absence in the untransfected control was confirmed by immunoblotting (FIG. 13E). Subsequently, the NQO1-negative and positive MDA-MB-231 cell lines were incubated with NIR-ASM and analyzed by fluorescence microscopy and flow cytometry for activation of the probe.
NQO1 plasmid transfection. Cells were seeded at 60% confluence in six-well plates 16 h before transfection with the desired plasmids. Transfections were carried using a plasmid expressing wild-type NQO1 (pCDNA3 NQO1-Flag, addgene, 61729) and X-tremeGENE DNA transfection reagent (Roche) according to manufacturer instructions. One μg DNA was used in each transfection and cell extracts were prepared 24 h post-transfection to confirm NQO1 protein expression by Western blotting.

NQO1 = NQO1 (Homo sapiens, UniProt P15559); assay: Fluorescent response of NIR-ASM towards NQO1; type: biochemical; parameters: purchased Sigma-Aldrich D1515
NQO1, sequence (P15559 whole entry): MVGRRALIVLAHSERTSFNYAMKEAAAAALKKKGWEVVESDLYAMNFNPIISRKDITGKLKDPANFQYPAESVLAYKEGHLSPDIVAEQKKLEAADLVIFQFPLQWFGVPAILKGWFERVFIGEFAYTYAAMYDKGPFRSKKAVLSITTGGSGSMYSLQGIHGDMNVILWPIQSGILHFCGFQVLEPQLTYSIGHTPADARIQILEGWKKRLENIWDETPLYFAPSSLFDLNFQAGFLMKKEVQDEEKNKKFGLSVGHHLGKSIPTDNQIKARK
Protocol: Fluorescent response of NIR-ASM towards NQO1. To unequivocally establish that NIR-ASM is a highly specific sensor for NQO1, the inventors first investigated its spectral properties were systematically studied in simulated physiological conditions 0.1% BSA containing PBS, BSA used as a stabilizing agent, pH 7.4) at 37° C., and the results are given in FIGS. 9D and 9E. […] However, upon addition of NQO1, the absorption at 403 nm disappears and a prominent absorption at 465 nm emerges; Along with the bathochromic shift of UV/Vis absorption, a distinct color change from yellow to red was observed after 30 min of incubation with NQO1. […] However, the reaction of the probe with NQO1 produced a strong fluorescence emission band at 646 nm with a large Stokes shift ([…]) (FIG. 9F), which is highly advantageous for bioimaging analysis, because of non-overlapping excitation and emission wavelengths. Next, the fluorescence response of NIR-ASM to NQO1 at varying concentrations (0-2.5 μg/mL) was studied. […] Also, the fluorescence enhancement was directly proportional to the enzyme concentration in the range of 0.125-2.5 μg/mL (R^2=0.9919, FIG. 9G). The NQO1 detection limit (LOD) of NIR-ASM was calculated to be as low as 0.191 μg/mL, based on the standard deviation of the response (Sy) and the slope of the calibration curve (S) according to the formula: LOD=3.3(Sy/S).
Spectroscopic measurements. NIR-ASM was dissolved with DMSO to prepare a stock solution, which was then diluted with enzyme reaction buffer (PBS containing 2.5 μg/mL, 100 μM NADH and 0.1% BSA) to prepare different concentrations of the probe for UV/Vis and fluorescence measurement. Time-dependent fluorescence intensity changes for different concentrations of NIR-ASM in the presence of NQO1 (2.5 μg/mL) and 100 μM NADH were measured using Clear bottom 96 well black plate and microplate reader. Fluorescence (ex. 460 nm and em. 646 nm) was quantitated every minute for 90 min with 20 seconds of shaking in between intervals.

NQO1 in A549 cells = assay: siRNA knockdown of NQO1 and NIR-ASM activation; type: cell-based, human; conditions: NQO1 expression silenced more than 70%, 60 min incubation, compared with the control
Protocol: as §1
Knockdown of NQO1 by small interfering RNA (siRNA). NQO1 and scrambled or control siRNAs were introduced into cells using the X-tremeGENE siRNA transfection reagent (Roche) according to the manufacturer's instructions. 10 μl of transfection reagent was mixed with 80 pmol of siRNA and added to A549 cells in six-well plates. siRNA transfection efficiency was confirmed with Western blotting.

[3] = system: DAOY, T98G, and U87MG cells; assay: Fluorescence microscopy of NQ-DCP in hNQO1 positive cancer cells; type: cell-based, human
Protocol: Visualization of Cancer Cells by Fluorescence Imaging of hNQO1. […] The cytotoxicity of NQ-DCP was initially evaluated in cultured brain tumor (DAOY, T98G, and U87MG) and normal (astrocytes) cells to assess its biocompatibility using the resazurin reduction assay. […] Cells were incubated with NQ-DCP (10 μM) for 60 min, washed with PBS and were imaged under a fluorescence microscope.
Cell Culture, Fluorescence Imaging, and Flow Cytometry Analysis. Brain tumor cells and astrocytes were grown in Dulbecco's modified Eagle's (DMEM) medium containing 10% Fetal Bovine Serum and 1% penicillin/streptomycin in a humidified atmosphere of 5% CO2 at 37° C. For fluorescence imaging, initially, cells were seeded into 6-well plate and cultured overnight in respective media at 37° C. Media was replaced with fresh medium containing 10 μM NQ-DCP and incubated at 37° C. for 60 min and then the medium was replaced with PBS and live cells were imaged using a fluorescence microscope. For inhibitor study, cells were pretreated with NQO1 inhibitor ES936 (100 nM) for 6 h before adding the NQ-DCP. For determining endogenous hNQO1 activity in cancer cells using flow cytometry, about 10×10^4 cells were incubated with 10 μM of NQ-DCP for 60 min and were analyzed using flow cytometry.

enzyme concentration range in which fluorescence enhancement was directly proportional (NQO1; 100 μM NADH)	NQO1 detection limit (LOD) (NQO1; LOD=3.3(Sy/S))	time to maximum emission at 646 nm (NQO1; NQO1 2.5 μg/mL)	Stokes shift (NQO1; after reaction with NQO1)	fluorescence emission band (NQO1; after reaction with NQO1)	absorption band (NQO1; before addition of NQO1, PBS 0.1% BSA pH 7.4, 37° C.)	absorption (NQO1; upon addition of NQO1)	cell permeability ([3]; inferred from intracellular activation)	SMILES	histological features (brain, heart, lung, liver, spleen, kidney; H&E) ([1]; versus control)	average body weights ([1]; versus vehicle)	fluorescence after NQO1 gene transfection [2]	NIR-ASM fluorescence after siRNA silencing of NQO1 (NQO1 in A549 cells)	fluorescence signal in cancer cells ([3]; 10 μM, 60 min)
0.125 to 2.5 µg/mL	0.191 µg/mL	30 min	186 nm	646 nm	403 nm	465 nm		CC1=C(C)C(=O)C(C(C)(C)CC(=O)Nc2ccc(/C=C/C3=CC(=C(C#N)C#N)CC(C)(C)C3)cc2)=C(C)C1=O [NIR-ASM, (E)-N-(4-(2-(3-(dicyanomethylene)-5,5-dimethylcyclohex-1-en-1-yl)vinyl)phenyl)-3-methyl-3-(2,4,5-trimethyl-3,6-dioxocyclohexa-1,4-dien-1-yl)butanamide]	no significant differences	no remarkable changes	intense fluorescence	almost a total loss	
							good cell permeability	CC1=C(C)C(=O)C(C(C)(C)CC(=O)Oc2ccc(/C=C/C3=CC(=C(C#N)C#N)CC(C)(C)C3)cc2)=C(C)C1=O [NQ-DCP]					bright fluorescence signals
